Values of other authors in patent US20040038984A1, “Composition for male & female sexual arousal” (priority 2002, published 2004).

Conditions: following oral administration

Cn1cc([S+](C)[O-])c(=O)c2ccc(F)cc21 (stereo not shown) [flosequinan]
time of peak plasma concentrations: 1 to 2 h
